Reference: US20230135635A1, “INHIBITORS OF ULK1/2 AND METHODS OF USING SAME” (SALK INSTITUTE FOR BIOLOGICAL STUDIES, priority 2020, published 2023)

Molecular target: T1, recombinant human ULK1 protein (1-649) (Homo sapiens, UniProt O75385)
T1 construct: recombinant human ULK1 protein (1-649, SignalChem #U01-11G); purchased SignalChem U01-11G
T1 sequence (O75385 1-649): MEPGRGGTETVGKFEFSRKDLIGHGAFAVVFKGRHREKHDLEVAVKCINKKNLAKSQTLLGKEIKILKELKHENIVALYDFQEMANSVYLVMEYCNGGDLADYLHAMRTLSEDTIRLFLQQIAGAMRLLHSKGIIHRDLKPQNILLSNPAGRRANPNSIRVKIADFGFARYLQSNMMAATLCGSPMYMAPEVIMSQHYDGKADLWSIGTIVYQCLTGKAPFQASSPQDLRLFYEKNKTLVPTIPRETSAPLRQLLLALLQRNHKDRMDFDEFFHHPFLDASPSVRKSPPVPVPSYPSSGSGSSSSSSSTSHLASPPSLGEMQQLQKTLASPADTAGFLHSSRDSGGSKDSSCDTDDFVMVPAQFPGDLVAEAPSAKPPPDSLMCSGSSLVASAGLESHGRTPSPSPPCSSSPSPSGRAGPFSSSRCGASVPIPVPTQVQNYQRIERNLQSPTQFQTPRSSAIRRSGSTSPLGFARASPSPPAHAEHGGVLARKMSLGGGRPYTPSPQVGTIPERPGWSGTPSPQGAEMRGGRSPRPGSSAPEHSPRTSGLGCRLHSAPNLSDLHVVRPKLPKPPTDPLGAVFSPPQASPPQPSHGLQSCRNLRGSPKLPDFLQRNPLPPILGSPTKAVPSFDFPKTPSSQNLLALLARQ
Assay: ULK1 inhibition assay (ADP Glo)
Assay type: biochemical
Method in brief: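 Recombinant ULK1 (2 ug/mL) phosphorylated myelin basic protein (80 ug/mL) at 25 uM ATP; ADP formed was detected by ADP-Glo after 1 h. Compounds ran in triplicate, 16-dose 3-fold serial dilution from 30 uM, to give IC50.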

Row | Compound | IC50 (Table 2) [nM] | IC50 (Table 3) [nM]
1 | COC(=O)c1ccccc1Oc1nc(Nc2ccc(C(N)=O)cc2)ncc1Br [Compound B41] | > 1000 | –
2 | COC(=O)c1ccccc1Oc1nc(Nc2ccc(C(F)(F)F)cc2)ncc1Br [Compound B42] | > 1000 | –
3 | COC(=O)c1ccc(Nc2ncc(Br)c(Oc3ccccc3C(=O)OC)n2)cc1 [Compound B43] | > 1000 | –
4 | COc1cc(Nc2ncc(Br)c(Oc3ccccc3C(=O)N3CCN(C)CC3)n2)cc(OC)c1OC [Compound B44] | > 1000 | –
5 | COc1cc(Nc2ncc(Br)c(Oc3ccccc3C(=O)N(C)CC#N)n2)cc(OC)c1OC [Compound B45] | 100 to 1000 | –
6 | COC(=O)c1ccccc1Oc1nc(Nc2ccc(O)c(O)c2)ncc1Br [Compound B46] | > 1000 | –
7 | COC(=O)c1ccccc1Oc1nc(Nc2ccc(N3CCNCC3)cc2)ncc1Br [Compound B47] | > 1000 | –
8 | COC(=O)c1ccccc1Oc1ncnc(Nc2cc(OC)c(OC)c(OC)c2)n1 [Compound B48] | > 1000 | –
9 | COc1cc(Nc2ncc(Br)c(Oc3ccccc3C(=O)N(C)CC(C)(C)O)n2)cc(OC)c1OC [Compound B49] | > 1000 | –
10 | COc1cc(Nc2ncc(Br)c(Oc3ccccc3C(=O)N3CCC3)n2)cc(OC)c1OC [Compound B50] | > 1000 | –
11 | CNC(=O)c1ccccc1Oc1nc(Nc2ccc3c(c2)OCCO3)ncc1C(F)(F)F [Compound B51, 2-((2-((2,3-Dihydrobenzo[b][1,4]dioxin-6-yl)amino)-5-(trifluoromethyl)pyrimidin-4-yl)oxy)-N-methylbenzamide] | > 1000 | –
12 | CNC(=O)c1ccccc1Oc1nc(Nc2ccc3c(c2)OCO3)ncc1C(F)(F)F [Compound B52, 2-((2-(Benzo[d][1,3]dioxol-5-ylamino)-5-(trifluoromethyl)pyrimidin-4-yl)oxy)-N-methyl benzamide] | > 1000 | –
13 | Oc1nc(Nc2ccc3c(c2)OCO3)ncc1C(F)(F)F [Compound B53, 2-(Benzo[d][1,3]dioxol-5-ylamino)-5-(trifluoromethyl)pyrimidin-4-ol] | > 1000 | –
14 | COc1cc(Nc2ncc(Br)c(Oc3ccccc3CO)n2)cc(OC)c1OC [Compound C1] | – | > 100
15 | COc1cc(Nc2nccc(Nc3ccccc3CN)n2)cc(OC)c1OC [Compound C13] | – | > 100
16 | COc1cc(Nc2ncc(Br)c(Nc3ccccc3CN3CCN(C)CC3)n2)cc(OC)c1OC [Compound C20] | – | > 100
17 | COc1cc(Nc2ncc(Br)c(Nc3ccccc3COC(=O)N3CCOCC3)n2)cc(OC)c1OC [Compound C21] | – | > 100

Row | Compound | IC50 (Table 2) [nM] | IC50 (Table 3) [nM]
18 | COc1cc(Nc2ncc(Br)c(Nc3ccccc3CN3CCN(S(C)(=O)=O)CC3)n2)cc(OC)c1OC [Compound C22] | – | > 100
19 | COc1cc(Nc2ncc(Br)c(Oc3ccc(NC(=O)C4(C(=O)Nc5ccc(F)cc5)CC4)cc3F)n2)cc(OC)c1OC [Compound C28, N-(4-((5-Bromo-2-((3,4,5-trimethoxyphenyl)amino)pyrimidin-4-yl)oxy)-3-fluorophenyl)-N-(4-fluorophenyl)cyclopropane-1,1-dicarboxamide] | – | > 100
20 | COc1cc(Nc2ncc(Br)c(Oc3ccc(NC(=O)CC(=O)Nc4ccc(F)cc4)cc3F)n2)cc(OC)c1OC [Compound C29, N^1-(4-((5-Bromo-2-((3,4,5-trimethoxyphenyl)amino)pyrimidin-4-yl)oxy)-3-fluorophenyl)-N^3-(4-fluorophenyl)malonamide] | – | > 100
21 | O=c1[nH]c2ccc(Nc3ncc(C(F)(F)F)c(NC4CC4)n3)cc2[nH]1 [Compound D1] | – | 5 to 100
22 | O=C(NCc1ccc(Nc2ncc(C(F)(F)F)c(NC3CC3)n2)cc1)OCc1ccccc1 [Compound D2] | – | < 5
23 | NCc1ccc(Nc2ncc(C(F)(F)F)c(NC3CC3)n2)cc1 [Compound D3] | – | < 5
24 | CN(C)Cc1ccc(Nc2ncc(C(F)(F)F)c(NC3CC3)n2)cc1 [Compound D4] | – | < 5
25 | CC(=O)NCc1ccc(Nc2ncc(C(F)(F)F)c(NC3CC3)n2)cc1 [Compound D5] | – | 5 to 100
26 | CN(C)C1Cc2ccc(Nc3ncc(C(F)(F)F)c(NC4CC4)n3)cc2C1 (stereo not drawn) [Compound D6] | – | < 5
27 | COC(=O)c1ccccc1Nc1nc(Nc2cc(OC)c(OC)c(OC)c2)ncc1Br [Compound E1] | – | < 5
28 | COc1cc(Nc2ncc(Br)c(Nc3ccccc3SC)n2)cc(OC)c1OC [Compound E3] | – | 5 to 100
29 | CNC(=O)c1ccccc1Nc1cc(C#N)nc(Nc2cc(OC)c(OC)c(OC)c2)n1 [Compound E8, 2-((6-Cyano-2-((3,4,5-trimethoxyphenyl)amino)pyrimidin-4-yl)amino)-N-methylbenzamide] | – | > 100
30 | CNC(=O)c1ccccc1Nc1nc(Nc2ccc(OC)c(OC)c2)ncc1Br [Compound E16, 2-((5-Bromo-2-((3,4-dimethoxyphenyl)amino)pyrimidin-4-yl)amino)-N-methylbenzamide] | – | 5 to 100
31 | CNC(=O)c1ccccc1Nc1nc(Nc2cc(OC)cc(OC)c2)ncc1Br [Compound E17, 2-((5-Bromo-2-((3,5-dimethoxyphenyl)amino)pyrimidin-4-yl)amino)-N-methylbenzamide] | – | 5 to 100
32 | CNC(=O)c1ccccc1Nc1nc(Nc2ccc(OC(F)F)cc2)ncc1Br [Compound E18, 2-((5-Bromo-2-((4-(difluoromethoxy)phenyl)amino)pyrimidin-4-yl)amino)-N-methylbenzamide] | – | > 100
33 | CNC(=O)c1ccccc1Nc1nc(Nc2ccc(OC(F)(F)F)cc2)ncc1Br [Compound E19, 2-((5-Bromo-2-((4-(trifluoromethoxy)phenyl)amino)pyrimidin-4-yl)amino)-N-methylbenzamide] | – | > 100
34 | CNC(=O)c1ccccc1Nc1nc(Nc2cccc(OC(F)(F)F)c2)ncc1Br [Compound E21, 2-((5-Bromo-2-((3-(trifluoromethoxy)phenyl)amino)pyrimidin-4-yl)amino)-N-methylbenzamide] | – | 5 to 100

The next lines start with the values.

Row | IC50 (Table 2) [nM] | IC50 (Table 3) [nM] | Compound
35 | – | < 5 | COCc1ccccc1Nc1nc(Nc2cc(OC)c(OC)c(OC)c2)ncc1Br [Compound C2]
36 | – | < 5 | COc1cc(Nc2ncc(C(F)(F)F)c(Nc3ccccc3CO)n2)cc(OC)c1OC [Compound C3]
37 | – | > 100 | OCc1ccccc1Nc1nc(Nc2ccccc2)ncc1Br [Compound C4]
38 | – | 5 to 100 | COc1ccc(Nc2ncc(Br)c(Nc3ccccc3CO)n2)cc1 [Compound C5]
39 | – | < 5 | COc1cccc(Nc2ncc(Br)c(Nc3ccccc3CO)n2)c1 [Compound C6]
40 | – | 5 to 100 | CC(=O)Nc1ccc(Nc2ncc(Br)c(Nc3ccccc3CO)n2)cc1 [Compound C7]
41 | – | 5 to 100 | OCc1ccccc1Nc1nc(Nc2ccc(OC(F)F)cc2)ncc1Br [Compound C8]
42 | – | < 5 | CN1CCN(c2ccc(Nc3ncc(Br)c(Nc4ccccc4CO)n3)cc2)CC1 [Compound C9]
43 | – | > 100 | COc1cc(Oc2ncc(Br)c(Nc3ccccc3CO)n2)cc(OC)c1OC [Compound C10]
44 | – | < 5 | CN(C)c1ccc(Nc2ncc(Br)c(Nc3ccccc3CO)n2)cc1 [Compound C11]
45 | – | < 5 | O=C(Nc1ccc(Nc2ncc(Br)c(Nc3ccccc3CO)n2)cc1)C1CC1 [Compound C12]
46 | – | 5 to 100 | NC(=O)c1ccc(Nc2ncc(Br)c(Nc3ccccc3CO)n2)cc1 [Compound C14]
47 | – | > 100 | NCCCNc1ncc(Br)c(Nc2ccccc2CO)n1 [Compound C15]
48 | – | < 5 | OCCN(CCO)c1ccc(Nc2ncc(Br)c(Nc3ccccc3CO)n2)cc1 [Compound C16]
49 | – | 5 to 100 | COc1cc(Nc2ncc(Br)c(Nc3ccccc3COC(C)=O)n2)cc(OC)c1OC [Compound C17]
50 | – | 5 to 100 | COc1cc(Nc2ncc(Br)c(Nc3ccccc3CN(C)C)n2)cc(OC)c1OC [Compound C18]
51 | – | > 100 | COc1cc(Nc2ncc(Br)c(Nc3ccccc3COCC(=O)N(C)C)n2)cc(OC)c1OC [Compound C19]
52 | – | > 100 | COc1cc(Nc2ncc(Br)c(Nc3ccccc3CN(C)CCO)n2)cc(OC)c1OC [Compound C23]
53 | – | > 100 | COc1cc(Nc2ncc(Br)c(Nc3ccccc3CNC3CC3)n2)cc(OC)c1OC [Compound C24]
54 | – | 5 to 100 | COc1cc(Nc2ncc(Br)c(Nc3ccccc3CNCC(N)=O)n2)cc(OC)c1OC [Compound C25]
55 | – | 5 to 100 | COc1cc(Nc2ncc(Br)c(Nc3ccccc3CN(C)CC#N)n2)cc(OC)c1OC [Compound C26]
56 | – | 5 to 100 | COc1cc(Nc2ncc(Br)c(Nc3ccccc3CN(CCO)CCO)n2)cc(OC)c1OC [Compound C27]
57 | – | < 5 | COc1cc(Nc2ncc(Br)c(Nc3ccccc3C(=O)O)n2)cc(OC)c1OC [Compound E2]
58 | – | 5 to 100 | CNC(=O)c1ccccc1Nc1nc(Nc2cccc(OC)c2)ncc1Br [Compound E14, 2-((5-Bromo-2-((3-methoxyphenyl)amino)pyrimidin-4-yl)amino)-N-methylbenzamide]
59 | – | > 100 | CNC(=O)c1ccccc1Nc1nc(Nc2ccc(OC)cc2)ncc1Br [Compound E15, 2-((5-Bromo-2-((4-methoxyphenyl)amino)pyrimidin-4-yl)amino)-N-methylbenzamide]
60 | – | > 100 | CNC(=O)c1ccccc1Nc1nc(Nc2cccc(OC(F)F)c2)ncc1Br [Compound E20, 2-((5-Bromo-2-((3-(difluoromethoxy)phenyl)amino)pyrimidin-4-yl)amino)-N-methylbenzamide]
